The test system of data set [1] is MCF-7 cells. To be noted: as previously reported by our group; cited from earlier work.
Data set [2] deals with MCF-7 cells. Description: Mitochondrial membrane potential (rhodamine 123, flow cytometry). The class given is cell-based, human. The note with it: MCF-7, compounds at respective IC50, 24 h. How it is done: To determine whether the toxic effects of selected sesquiterpenes (10c, 11c, 12c, 13c, and 14c) are due to the production of ROS and subsequent apoptosis, the mitochondrial membrane potential was measured. With this aim, a protocol using rhodamine 123 staining and flow cytometry was established to study the effect of the selected compounds [40]. The accumulation of rhodamine 123 in mitochondria is associated with the maintenance of the electrochemical gradient in mitochondria. Daunorubicin was used as a positive control (C+). The results are presented as the percentage of cells with increased mitochondrial membrane permeability.
Rhodamine 123 (Rho123), a positively charged dye that reacts to voltage changes and enters the mitochondria, was utilized to detect modifications in the mitochondrial membrane potential. The cells were exposed to specific compounds (IC50 values for each compound) for 24 h. Control cells that had not been treated were used as negative control, while cells treated with daunorubicin at a concentration of 1 µM served as the positive control. Following this, the cells were incubated with Rho123 (at a concentration of 1 µM) in darkness for an hour at 37 °C. Afterward, the medium was taken out, and the cells were washed with PBS. The cells were then dissociated using trypsin and collected through centrifugation for 10 min at 1500×g. The supernatant was thrown away, and the cell pellets were resuspended in PBS and analyzed using flow cytometry with the FL1 filter. The results are shown as the percentage of Rho123-stained cells.
Figure 5 The effect of the compound’s treatment on mitochondrial membrane potential. […] The data represent the means ± S.D. of at least three experiments with triplicate samples.

Data set [3] has as its system MCF-7 cells. Nature of the data set: MTT cytotoxicity assay on MCF-7 cells. It counts as cell-based, human. To be noted: for IC50: MTT, 48 h incubation, IC50 ± SD, three experiments in triplicate; for Selectivity Index (SI): SI = IC50 on MCF-10 cells/IC50 on MCF-7 cells. How it is done: (§1) In this study, we wondered whether semi-synthetic compounds have potential antitumoral properties against BC. Therefore, we were interested in investigating the effect of the compounds on the MCF-7 cell line. Firstly, we studied the effect on cell viability using a colorimetric MTT assay, which was performed to quantify the cytotoxic activity; each compound was evaluated at different concentrations (500−100−20−4−0.8−0.16−0.032−0 µM). Daunorubicin was also used as a positive control for comparison with a reference drug. […] Although the MCF-10 cell line provides a useful selectivity model, it may not fully represent the varying sensitivities of different normal cell types within a multicellular organism. The SI value indicates the ratio of toxicity in mammalian host cells to that in a tumoral cell. The data obtained in response to different concentrations of compounds were used to calculate the IC50 and corresponding SI values, as shown in Table 1.
(§2) The American Type Culture Collection (Rockville, MD, USA) supplied the following experimental cell lines: MCF-7, a human breast cancer cell line, and MCF-10A, a human epithelial breast cell line (ATCC N° CRL-10317). Both cell lines were grown in DMEM-F12 medium containing 10% FCS, 100 U/mL penicillin, 100 μg/mL streptomycin, and 1 mM glutamine. The cells were seeded at a concentration of 100 μL per well at a plating density of 3 × 10^3 cells/well and incubated for 24 h at 37 °C under 5% humidified CO2 to enable attachment. The cells were then treated with varying concentrations of synthesized compounds for […] under the same conditions. The compound stock solution was prepared in DMSO, and the final concentration of DMSO was kept at 0.1%. Control cultures were treated with only 1% ethanol.
(§3) Cells from the MCF-7 and MCF-10 lines were seeded into 96-well plates at a density of 1 × 10^4 per well. After 24 h, the compounds were added at increasing concentrations (500–100–20-4–0.8–0.16–0.032–0 µM), and the cells were incubated at 37 °C in a humidified 5% CO2/95% air mixture for 48 h. Following incubation, the cells were washed twice with PBS, and 100 μL of 0.5 mg/mL MTT solution was added to each well. After 2 h of incubation, the MTT solution was removed, and the formazan crystals were dissolved in 50 μL of DMSO per well. Absorbance was then measured at 570 nm using a microplate ELISA reader. IC50 values, determined from three independent experiments conducted in triplicate, were calculated using SigmaPlot® software (version 11.0). The selectivity index (SI) of each compound in each cell line was determined by calculating the ratio of the IC50 values for MCF-10 and cancer cell lines. Compounds were considered selective if SI values were equal to or greater than 3 [46].

A further data set has as its system MCF-10 cells. Nature of the data set: MTT cytotoxicity assay on non-tumoral MCF-10 cells. It counts as cell-based, human. The note with it: IC50 ± SD, three experiments in triplicate. How it is done: as §1, §2, §3
The test system of data set [4] is MCF-7 cells. Nature of the data set: Intracellular ROS generation (DCFH2-DA, flow cytometry). It counts as cell-based, human. To be noted: MCF-7, compounds at respective IC50, 24 h, versus control. How it is done:
An increase in intracellular ROS may be one of the factors that contribute to the cytotoxicity of certain compounds in cancer cell lines. In fact, ROS and mitochondrial damage are often associated with the induction of cell death. […] DCF fluorescence was then measured by flow cytometry. The difference in the percentage of DCF-positive cells between treated and control cells was used to indicate an increase in intracellular ROS, as shown in Figure 4.
Reactive oxygen species (ROS) production was measured using flow cytometry. Cells were treated with compounds (each with respective IC50 values) for 24 h, with untreated cells serving as the negative control and cells treated with 1 µM daunorubicin as the positive control. Following the treatment, intracellular ROS levels were visualized after incubation with 2′,7′-dichlorodihydro-fluorescein diacetate (DCFH2-DA) at a final concentration of 10 μM for the last 30 min of the treatment period. After incubation, the cells were washed with PBS, trypsinized, and centrifuged, and the resulting pellet was resuspended in PBS and immediately examined by flow cytometry.
Figure 4 The effect of the compound’s treatment on intracellular ROS generation. Cells were treated with compounds (respective IC50 values for each compound for 24 h), and intracellular ROS levels were determined in the human cancer cell line MCF-7 by flow cytometry using dichloro-fluorescein diacetate (DCFH2-DA). * p < 0.05 versus control cells (Ctrl). The data represent the means ± S.D. of at least three experiments with triplicate samples.

Data set [5] concerns caspases-3/7 in MCF-7 cells. Nature of the data set: Caspase-Glo 3/7 assay. It counts as cell-based, human. The note with it: MCF-7, 50 μM, 24 h, versus control. How it is done: Since ROS levels were increased in the MCF-7 cancer cell line in response to the compounds, it is important to determine whether this effect is associated with the onset of apoptotic cell death. […] Cells were treated with the selected compounds at 50 μM for 24 h, incubated in situ with the Caspase-Glo 3/7 marker assay, and then analyzed in a luminometer.
The activity of caspase 3/7 in MCF-7 cells treated with the compounds was determined using a Caspase-Glo-3/7 Assay kit from Promega (UK). This assay is a homogenous and luminescent method that measures the activity of caspase-3 and -7, which are essential for apoptosis. MCF-7 cells (1 × 10^4 cells per well) were seeded in a 96-well plate and incubated overnight. The cells were then treated for 24 h with the compounds (50 µM) and a blank as a control. After treatment, the Caspase-Glo® 3/7 reagent was prepared according to the manufacturer’s instructions. Specifically, 100 μL of the reagent was added to 100 μL of culture medium containing the treated cells in each well, and the mixture was incubated for 1 h at room temperature in the dark. Luminescence was then measured using a luminometer (Berthold Sirius Single Tube Luminometer). The fold change in caspase activity was calculated by expressing the average luminescence of each treatment as a fold change with respect to the average luminescence of the negative control.
Figure 6 The effect of the compounds on caspases-3/7 activity in cells from the human breast cancer cell line MCF-7. Caspases-3/7 activity was determined in MCF-7 cells following treatment with the compounds (50 μM) for 24 h. The data are reported as the ratio of activity in treated cells vs. the control (1% ethanol), which were arbitrarily assigned a unitary value. * p < 0.05 versus control cells (Ctrl). The data are reported as the mean values ± S.D. of three different experiments with samples in triplicate.

Setting [6] is: Homo sapiens, MCF10, 48 h incubation.

“Also recorded” adds a separate entry of the source.

With `CC1=CC[C@H]2C(C)(C)CCC[C@]2(C)[C@H]1CO` [(-)-drimenol], in the data set on MCF-7 cells [1], the “cytotoxicity of the base sesquiterpene system” value was “inactive”.
In the case of `COc1ccc([C@@H](O)[C@H]2C(C)=CCC3C(C)(C)CCC[C@@]32C)cc1OC` (stereo partly drawn) [Compound 10c, (1S)-(3,4-Dimethoxyphenyl)((1S,8aS)-2,5,5,8a-tetramethyl-1,4,4a,5,6,7,8,8a-octahydronaphthalen-1-yl) methanol], in the data set on MCF-7 cells [2], the mitochondrial membrane permeability result is recorded as “did not increase”. For the same compound, the 50% inhibitory concentration (IC50) with MCF-7 cells [3] (Homo sapiens, MCF7) amounted to 25.1 ± 2.2 µM; with MCF-10 cells (setting [6]), 248 ± 42.3 µM. The “Selectivity Index (SI)” value with MCF-7 cells [3] is 9.9. For the same compound, the “intracellular ROS levels (DCF fluorescence)” value (“intracellular ROS levels” for short) in the data set on MCF-7 cells [4] is reported as “significantly increased”. Moreover, the caspases-3/7 activity entry in data set [5] is “considerably enhanced”.
Take `COc1ccc(C[C@H]2C(C)=CCC3C(C)(C)CCC[C@@]32C)cc1OC` (stereo partly drawn) [Compound 11c, (4aS,5S)-5-(3,4-Dimethoxybenzyl)-1,1,4a,6-tetramethyl-1,2,3,4,4a,5,8,8a-octahydronaphthalenene]: the mitochondrial membrane permeability result with MCF-7 cells [2] is reported as “did not increase”. The IC50 was 13.5 ± 1.8 µM with MCF-7 cells [3] (Homo sapiens, MCF7) and 87.7 ± 17.8 µM with MCF-10 cells (setting [6]). In addition, the “Selectivity Index (SI)” value with MCF-7 cells [3] came out at 6.5. For the same compound, the “intracellular ROS levels” value in the data set with MCF-7 cells [4] is reported as “significantly increased; also recorded: most effective”. Moreover, in data set [5], the caspases-3/7 activity entry is “considerably enhanced”.
As for `COc1ccc(C(=O)[C@H]2C(C)=CCC3C(C)(C)CCC[C@@]32C)cc1OC` (stereo partly drawn) [Compound 12c, (3,4-Dimethoxyphenyl)((1S,8aS)-2,5,5,8a-tetramethyl-1,4,4a,5,6,7,8,8a-octahydronaphthalen-1-yl)methanone], the mitochondrial membrane permeability entry with MCF-7 cells [2] is given as “did not increase”. The IC50 was found to be 30.1 ± 6.6 µM in the data set with MCF-7 cells [3] (Homo sapiens, MCF7) and 131 ± 29.3 µM with MCF-10 cells (setting [6]). In the data set with MCF-7 cells [3], the “Selectivity Index (SI)” value amounted to 4.3. In the data set with MCF-7 cells [4], the “intracellular ROS levels” value is “significantly increased”. The caspases-3/7 activity entry in data set [5] was “considerably enhanced”.
With `COc1cc2c(c(OC)c1)[C@]1(C)CCC3C(C)(C)CCC[C@]3(C)C1=C2` (stereo partly drawn) [Compound 14d, (6aR,11bS)-7,9-Dimethoxy-4,4,6a,11b-tetramethyl-2,3,4,4a,5,6,6a,11b-octahydro-1H-benzo[a]fluorene], the concentration for half-maximal inhibition (IC50) with MCF-7 cells [3] (Homo sapiens, MCF7) came out at 120 ± 29.8 µM; with MCF-10 cells (setting [6]), 31.4 ± 4.6 µM. The “Selectivity Index (SI)” value in the data set on MCF-7 cells [3] is reported as 0.3.
On to “(4aS,5S)-5-(3,5-Dimethoxybenzyl)-1,1,4a,6-tetramethyl-1,2,3,4,4a,5,8,8a-octahydronaphthalene [Compound 11d]”, for which the IC50 worked out at 187 ± 9 µM in the data set on MCF-7 cells [3] and 165 ± 12.5 µM in the data set with MCF-10 cells (48 h incubation).

The values above are taken from article PMC12111648, “New Dimethoxyaryl-Sesquiterpene Derivatives with Cytotoxic Activity Against MCF-7 Breast Cancer Cells: From Synthesis to Topoisomerase I/II Inhibition and Cell Death Mechanism Studies” (International Journal of Molecular Sciences, 2025).
